Test results reported in ChEMBL document CHEMBL1144055, “Mathemycin B, a new antifungal macrolactone from actinomycete species HIL Y-8620959” (1999).

Tests used:
Format in all cases: functional
Fusarium culmorum = assay: Antimicrobial activity against Fusarium culmorum assessed as drug concentration required to form 10 mm zone of inhibition by agar diffusion method
Alternaria mali = assay: Antimicrobial activity against Alternaria mali P37 assessed as drug concentration required to form 10 mm zone of inhibition by agar diffusion method
Parastagonospora nodorum = assay: Antimicrobial activity against Leptosphaeria nodorum JO2 assessed as drug concentration required to form 10 mm zone of inhibition by agar diffusion method
Botrytis cinerea [1] = assay: Antimicrobial activity against Botrytis cinerea DO1 assessed as drug concentration required to form 10 mm zone of inhibition by agar diffusion method
Botrytis cinerea [2] = assay: Antimicrobial activity against Botrytis cinerea A06 assessed as drug concentration required to form 10 mm zone of inhibition by agar diffusion method
[3] = Antimicrobial activity against Pellicularia sasakii JO3 assessed as drug concentration required to form 10 mm zone of inhibition by agar diffusion method
Oculimacula yallundae = assay: Antimicrobial activity against Pseudocercosporella herpotrichoides 008 assessed as drug concentration required to form 10 mm zone of inhibition by agar diffusion method
Phytophthora infestans = assay: Antimicrobial activity against Phytophthora infestans JO8 assessed as drug concentration required to form 10 mm zone of inhibition by agar diffusion method

Question: What does the source list for `C/C1=C\C(C)C(O)/C(C)=C/C(O[C@H]2O[C@H](CO)[C@@H](O)[C@H](O[C@@H]3O[C@H](CO)[C@@H](O)[C@H](O)[C@@H]3O)[C@@H]2O)C(O)C(C)C(O)CC(O)CC(O)C(C)C(O)CC(O)CC(O)C(C)C(O)CC(O)CC(O[C@@H]2O[C@H](C)[C@@H](O)[C@H](N)[C@H]2O)C(C)C(C(C)CC(C)CCCCCCN)OC(=O)CCC(C)C(O)CC/C=C/C(C)C1O` (some centres undefined) [MATHEMYCIN B]?
Answer: MAC (Fusarium culmorum): 62.5 mg/L; MAC (Alternaria mali): 62.5 mg/L; MAC (Parastagonospora nodorum): 125 mg/L; MAC (Botrytis cinerea [1]): 62.5 mg/L; MAC (Botrytis cinerea [2]): 62.5 mg/L; MAC [3]: 62.5 mg/L; MAC (Oculimacula yallundae): 250 mg/L

Question: With MANCOZEB as the compound, how does the MAC (Phytophthora infestans) read?
Answer: 62.5 mg/L

Question: With maneb as the compound, how does the MAC (Oculimacula yallundae) read?
Answer: 125 mg/L
